Assay results as given in US10159676B2, “Induction of tumor hypoxia for cancer therapy” (Virginia Commonwealth University, priority 2008, dated 2018).
Entries after “also recorded” stand apart in the source; their conditions may differ.

Key:
UCI-101 tumor xenograft = test: Tumor growth, stilbene 5c with or without bevacizumab; assay type: in vivo, nude mice
Procedure: FIG. 4. Efficacy of stilbene 5c in vivo and enhanced effect by bevacizumab. Nude mice were injected with UCI-101 cells subcutaneously and mice are treated with stilbene 5c at 20 mg/kg/day Monday-Friday with or without bevacizumab 10 mg/kg twice a week. Tumor volume was calculated by the long and short axes. Each group contains 8 mice and the average tumor volumes and standard deviations were plotted against days.
Tumor cell lines used in this study include UCI-101 ovarian cancer cells and Hep3B hepatocellular carcinoma cells. Cells are grown in IMEM and DMEM, respectively, supplemented with 10% fetal bovine serum, glutamine, and penicillium/streptomycin in 5% CO2 humidified environment. When cells were grown to 80% confluent, cells were harvested with 1% trypsin and washed with phosphate-buffered saline three times before injected subcutaneously into nude mice. For mouse xenograft studies, 2×10^6 tumor cells were injected in the back subcutaneously. Nude mice were purchased from NCI Development Therapeutic Program as described. Tumor size was monitored by long and short axes (a and b, respectively) by a caliber and tumor volume was calculated by the formula ab^2/2. […]. Treatment with AAA bevacizumab was done by tail vein injection at a dose of 10 mg/kg.
Next we used ovarian cancer UCI101 cells to study the in vivo efficacy of stilbene 5c We first administered stilbene 5c with intraperitoneal injection at 25 mg/kg three times a week. Tumor volume was calculated by measuring the long and short axes. […] The failure could be due to the possibility that intermittent dosing leaves a viable rim of tumor, which survives the treatment of VDAs by getting nutritional and blood support from surrounding normal vasculature. When treatment with VDAs is stopped, the viable rim of tumor grows quickly. Tumor vasculature recovers quickly by recruitment of the mobilized endothelial progenitor cells. Based on this rationale, we combined stilbene 5c with bevacizumab, which was used to neutralize VEGF secreted by UCI-101 tumor cells. […]

UCI101 tumor xenografts [1] = test: Tumor necrosis in H&E sections three days after treatment; conditions: tirapazamine 60 mg/kg ip, 60 min later stilbene 5c 50 mg/kg ip; sacrificed three days later
Procedure: Mice were sacrificed three days later and tumors were harvested for H&E section. […] The portion of tumor that stained darker is viable, whereas the portion in lighter color is the necrotic area.
After 60 min, stilbene 5c was administered intraperitoneally at 50 mg/kg, which has been established to be capable of inducing profound tumor hypoxia within minutes (FIG. 3). […] Mice were then sacrificed three days later. Tumors were harvested and the center portion of tumor was sliced and analyzed with histological section and H&E staining.

UCI101 tumor xenografts [2] = test: Tumor and normal organ perfusion by DCE-MRI (gadolinium accumulation); assay type: in vivo, nude mice; conditions: stilbene 5c 50 mg/kg intraperitoneal, 4 hours after injection, same mice before vs after
Procedure: FIGS. 1A and B. Study of tumor perfusion using accumulation of gadolinium at 30 min after gadolinium injection. (A) T1-weighted images before and after stilbene 5c treatment in the same mouse. Nude mice with established subcutaneously UCI101 tumor xenografts were analyzed with DCE-MRI for tumor perfusion. DCE-MRI images were collected for 30 min after injection of gadolinium (OmniScan) into tail veins. The same mice were studied before and after stilbene 5c treatment to avoid individual variation. The left panels show the T1-weighted images before injection of gadolinium. The right panels show images at 30 min after injection of gadolinium. […] (B) Average of calculated gadolinium concentrations in tumor and muscle before and after stilbene 5c treatment. […]
Nude mice with tumor xenografts were anesthetized with 1% isoflurane and mixed oxygen. […] After the initial rate is established, subsequent MRI studies focused on the sustained increase in gadolinium signals, which also provide qualitative and quantitative information for tissue perfusion. […]
Stilbene 5c was investigated to examine whether it can suppress tumor blood flow and eventually lead to tumor hypoxia. […] After injected with 20 μl of gadolinium (OmniScan) via the tail vein, mice were analyzed with a rapid sequence MRI every minute for total of 30 min. […]

SMILES: COc1cc(/C=C\c2ccc(OC)c(N)c2)cc(OC)c1 [stilbene 5c, cis-3, 4′, 5-trimethoxy-3′-aminostilbene]
- difference in tumor growth between control and treated mice (UCI-101 tumor xenograft; intraperitoneal 25 mg/kg three times a week): did not detect any difference
- tumor growth suppression (UCI-101 tumor xenograft; stilbene 5c 20 mg/kg/day Monday to Friday for two weeks, bevacizumab 10 mg/kg twice a week for 5 doses): about 45%
- area of tumor necrosis (H&E, qualitative) (UCI101 tumor xenografts [1]): very small areas of tumor necrosis
- concentration of gadolinium in tumor after stilbene 5c treatment (decreased to, average) (UCI101 tumor xenografts [2]; 30 min after gadolinium, 6 mice): 62.8%
- concentration of gadolinium in muscle after stilbene 5c treatment (UCI101 tumor xenografts [2]): no significant change; also recorded: did not change
